Experimental data as given in patent US10669245B2, “Certain (2S)-N-[(1S)-1-cyano-2-phenylethyl]-1,4-oxazepane-2-carboxamides dipeptidyl peptidase 1 inhibitors” (AstraZeneca AB, priority 2014, dated 2020).

How the values were obtained:
[1] = Test B: In-Vitro Competitive Aortic Tissue Binding Assay; design: species or system Han Wistar rats; conditions: 100 μM compound, competition with [14C]-labelled WO2010/128324 Ex. 3 in rat aortic homogenate; four categories
Description: To assist the design of DPP1 inhibitors with a decreased risk of binding to elastin rich tissues, such as the aorta, the in-vitro competitive aortic binding assay disclosed below (Test B) was developed to facilitate the selection process.
Test B: In-Vitro Competitive Aortic Tissue Binding Assay
Aortic homogenate was prepared from the thoracic aortae of Han Wistar rats. Freshly isolated to thoracic aortae were frozen, and later thawed and stripped of non-elastic material. […] Homogenate concentration was adjusted to 30 mg/mL in Puck's saline, and aliquots were stored at −80° C. until use. Positive and negative control compounds and test compounds were made up to 100 mM in DMSO, and added to 1 mL aliquots of aortic homogenate in Puck's saline for a final concentration of 100 μM. Homogenate samples were pre-incubated with test compounds at 37° C., rotating, overnight. [^14C]4-Amino-N-[(1S)-1-cyano-2-(4′-cyanobiphenyl-4-yl)ethyl]tetrahydro-2H-pyran-4-carboxamide was then added to all samples to a final concentration of 100 μM, and samples were incubated at 37° C., rotating, for a further 2 h. Protein was precipitated from each sample by the addition of 10 mL acetone, pre-chilled to −20° C. Samples were left overnight at −20° C. to allow complete precipitation. Precipitate was pelleted by centrifugation at 4,500×g at 4° C. for 20 min, an aliquot of supernatant was removed for analysis, and the remainder of the supernatant discarded. Precipitate was washed by resuspension in 10 mL 80% methanol in distilled water, and re-pelleted by centrifugation at 4,500×g at 4° C. for 20 min. […] After final wash, precipitate was air-dried, and dissolved overnight in 1 mL NCSII Tissue Solubiliser. 1 mL aliquots of supernatants were added to 5 mL Ultima Gold scintillation fluid (Perkin Elmer, Mass., U.S.A.), and 1 mL solubilised pellets were added to 5 mL Hionic-Fluor scintillation fluid (Perkin Elmer, Mass., U.S.A.). Radioactivity of samples was determined on a Beckman LS6500 multipurpose scintillation counter (Beckman Coulter, Ind., U.S.A.). […] Duplicate samples were tested for each compound on each experimental occasion, and at least two experiments were run for each test compound. […] 1-way ANOVA and Bonferroni's multiple comparison tests were performed to calculate significance of differences from vehicle control.

[2] = target: Recombinant Human (RH) DPP1 (Homo sapiens (Human), UniProt P53634); assay: Test A1: Fluorescence Assay for Recombinant Human (RH) DPP1; type: biochemical; conditions: Test A1, rhDPP1, H-Gly-Arg-AMC substrate (Examples 1-35)
Description: Test A1: Fluorescence Assay for Recombinant Human (RH) DPP1
The activity of DPP1 was determined by measuring the enzymatic release of aminomethyl coumarin (AMC) from the peptide substrate (H-Gly-Arg-AMC), which leads to an increase in fluorescence intensity at λex=350 nm and λem=450 nm. The assay was carried out in black 384 well plates in a final volume of 50 μl at 22° C. The assay conditions contained the following: 25 mM piperazine buffer pH 5.0; 50 mM NaCl, 5 mM DTT; 0.01% (v/v) Triton X-100; 100 μM H-Gly-Arg-AMC and rhDPP1 (˜50 pM). […] Routinely, inhibitors were pre-incubated with rhDPP1 for 30-60 min prior to the addition of the peptide substrate to start the reaction for a further 60 min at 22° C.

[3] = described in literature (Schmidt et al. 1984); cited from earlier work
[4] = rat quantitative whole-body autoradiography (QWBA) studies; type: in vivo

Sequence of Recombinant Human (RH) DPP1 (P53634 231-394): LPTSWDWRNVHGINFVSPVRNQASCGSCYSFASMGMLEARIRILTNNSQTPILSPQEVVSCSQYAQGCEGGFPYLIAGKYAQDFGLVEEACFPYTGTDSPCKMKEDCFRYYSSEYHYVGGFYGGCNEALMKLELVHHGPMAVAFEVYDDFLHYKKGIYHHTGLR
Sequence of Recombinant Human (RH) DPP1 (P53634 25-143): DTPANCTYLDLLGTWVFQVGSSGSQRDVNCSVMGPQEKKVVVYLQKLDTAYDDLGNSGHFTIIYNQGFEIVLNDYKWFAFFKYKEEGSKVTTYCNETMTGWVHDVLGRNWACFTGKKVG
Sequence of Recombinant Human (RH) DPP1 (P53634 395-463): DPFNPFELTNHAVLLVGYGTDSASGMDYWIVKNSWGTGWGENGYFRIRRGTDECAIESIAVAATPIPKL

With `Cn1c(=O)oc2ccc(-c3ccc(C[C@@H](C#N)NC(=O)[C@@H]4CCCCN4)cc3)cc21` [WO2009/074829 (Example 96)] the “Aortic Tissue Binding” value [1] was “Medium binder”.
With `Cn1c(=O)oc2ccc(-c3ccc(C[C@@H](C#N)NC(=O)[C@@H]4CNCCCO4)cc3)cc21` [Example 2, (2S)—N-{(1S)-1-Cyano-2-[4-(3-methyl-2-oxo-2,3-dihydro-1,3-benzoxazol-5-yl)phenyl]ethyl}-1,4-oxazepane-2-carboxamide] the “Aortic Tissue Binding” value [1] was “No binder”.
In the case of `Cn1c(=O)oc2ccc(-c3ccc(C[C@@H](C#N)NC(=O)C4(N)CCOCC4)cc3)cc21` [WO2010/128324 (Example 17)], the “Aortic Tissue Binding” value [1] was “Strong binder”.
For `N#Cc1ccc(-c2ccc(C[C@@H](C#N)NC(=O)[C@@H]3CCCCN3)cc2)cc1` [WO2009/074829 (Example 24)], the “Aortic Tissue Binding” value [1] was “Binder”.
In the case of `N#C[C@H](Cc1ccc(-c2ccc(C(N)=O)c(F)c2)cc1)NC(=O)[C@@H]1CNCCCO1` [Example 23, (2S)-N-[(1S)-2-(4′-Carbamoyl-3′-fluorobiphenyl-4-yl)-1-cyanoethyl]-1,4-oxazepane-2-carboxamide], the “DPP1 activity, pIC50” value [2] was 7.17.
With `CS(=O)(=O)c1ccc(-c2ccc(C[C@@H](C#N)NC(=O)[C@@H]3CNCCCO3)cc2)cc1` [Example 30, (2S)-N-{(1S)-1-Cyano-2-[4′-(methylsulfonyl)biphenyl-4-yl]ethyl}-1,4-oxazepane-2-carboxamide] the “DPP1 activity, pIC50” value [2] was 7.43.
In the case of `CC(c1ccc(Cl)c(Cl)c1)N1N=C(N)CC1=O` (stereo not drawn) [muzolimine], the “retention in the aorta in QWBA” value [3] is given as “retained selectively in the aorta”.
For `N#Cc1ccc(-c2ccc(C[C@@H](C#N)NC(=O)C3(N)CCOCC3)cc2)cc1` [WO2010/128324 (Ex. 3), 4-amino-N-[(1S)-1-cyano-2-(4′-cyanobiphenyl-4-yl)ethyl]tetrahydro-2H-pyran-4-carboxamide], the “Aortic Tissue Binding” value [1] was “Strong binder (reference)” and the “aortic retention in QWBA” value [4] was “high level of aortic retention”.
